In patent US20180008629A1, “Compositions and Methods for Treating NLRP3 Inflammasome-Related Diseases and Disorders” (priority 2015, published 2018):
Blank lines part the entries; values can stand above or below the molecule they belong to.

Columns and labels:
[1] = target: NLRP3 inflammasome (Mus musculus, UniProt Q8R4B8); assay: NLRP3 inflammasome activation in LPS primed BMDMs (caspase-1 / IL-1β immunoblot); assay type: cell-based; design: endogenous in cells; host or cells: mouse bone marrow derived macrophages (A1); conditions: for effect on BHB's suppressive effects on ATP-induced NLRP3 inflammasome activation: co-treatment with BHB; for ATP-induced NLRP3 activation: BMDMs stimulated with LPS and ATP, caspase-1 immunoblot (FIG. 1B); for induction of caspase-1 cleavage by ROS damage: rotenone (10 μM) or hydrogen peroxide
Sequence of NLRP3 inflammasome (Q8R4B8 whole entry): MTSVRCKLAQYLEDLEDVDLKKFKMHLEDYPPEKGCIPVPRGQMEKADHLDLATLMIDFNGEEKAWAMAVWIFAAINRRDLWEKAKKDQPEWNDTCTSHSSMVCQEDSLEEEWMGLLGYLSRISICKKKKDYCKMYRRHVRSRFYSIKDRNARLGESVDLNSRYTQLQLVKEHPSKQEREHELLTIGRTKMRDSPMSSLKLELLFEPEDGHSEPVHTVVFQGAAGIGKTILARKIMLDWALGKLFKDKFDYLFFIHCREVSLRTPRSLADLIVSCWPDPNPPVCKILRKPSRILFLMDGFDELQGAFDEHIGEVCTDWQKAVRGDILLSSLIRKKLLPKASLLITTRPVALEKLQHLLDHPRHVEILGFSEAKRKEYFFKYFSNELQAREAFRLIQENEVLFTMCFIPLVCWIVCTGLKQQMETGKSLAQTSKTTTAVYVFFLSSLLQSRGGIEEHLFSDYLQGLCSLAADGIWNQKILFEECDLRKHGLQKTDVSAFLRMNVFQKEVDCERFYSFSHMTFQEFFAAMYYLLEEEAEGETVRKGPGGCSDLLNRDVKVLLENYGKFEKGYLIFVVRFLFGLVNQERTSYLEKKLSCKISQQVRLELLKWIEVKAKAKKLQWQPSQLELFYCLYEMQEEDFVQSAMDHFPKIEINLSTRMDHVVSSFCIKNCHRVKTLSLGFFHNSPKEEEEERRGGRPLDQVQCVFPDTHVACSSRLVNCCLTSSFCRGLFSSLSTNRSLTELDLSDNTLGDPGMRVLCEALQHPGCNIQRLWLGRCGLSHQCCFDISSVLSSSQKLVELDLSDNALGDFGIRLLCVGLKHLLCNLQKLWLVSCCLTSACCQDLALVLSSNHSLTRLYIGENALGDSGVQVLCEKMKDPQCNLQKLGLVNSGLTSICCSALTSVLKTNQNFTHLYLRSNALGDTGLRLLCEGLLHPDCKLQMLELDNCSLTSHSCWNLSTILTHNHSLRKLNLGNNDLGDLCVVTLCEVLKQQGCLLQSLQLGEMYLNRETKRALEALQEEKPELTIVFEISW
Protocol: All steps were performed using sterile technique. Femurs were collected in RPMI (Life Technologies, Grand Island, N.Y.)+5% FBS (R5; Omega Scientific, Tarzana, Calif.). Both ends of the femur were then cut and the femur was flushed with R5. The bone marrow was centrifuge at 450 g for 5 min, the supernatant was decanted and red blood cells were lysed using ACK lysis buffer (Quality Biological, Gaithersburg, Md.). After neutralization with R5, bone marrow cells were centrifuged, resuspended in 10 ml of R5 and placed into a 6 well plate. Non-adherent cells were collected the following morning. The non-adherent cells were resuspended at 4×10^6 cells/ml in media consisting of 10 ml supernatant of non-adherent cells, 7.2 ml L929 conditioned media, 6.8 ml R5 and MCSF (long/ml; R&D Systems, Minneapolis, Minn.). An additional 2 ml of fresh media was added 4 d after isolation. Non-adherent cells were collected on day 7, separated by density gradient separation using Fico/Lite (Atlanta Biologicals, Flowery Branch, Ga.) and mononuclear cells were collected. Cells were rinsed twice with Dulbecco's PBS+2% FBS, and resuspended at 1×10^6 cells/ml. Cells were treated with ultrapure LPS (Invivogen, San Diego, Calif.) alone or in combination with 5 mM ATP (Sigma, St. Louis, Mo.) or 200 μM palmitate-BSA (Sigma). The BMDMs were also primed with ultrapure lipid A (10 μg/ml; Invivogen, San Diego, Calif.), lipoteichoic acid (10 μg/ml; Invivogen), or Pam3-CSK4 (10 μg/ml; Invivogen) for 4 hour and stimulated with various NLRP3 activators (ATP 5 mM; Sigma, MSU 250 ug/ml; Invivogen, Silica; 200 ug/ml; Invivogen, sodium palmitate; 200 μM; Sigma, ceramide C6 80 μg/ml; Cayman, and sphingosine 40 μM; Cayman, Ann Arbor, Mich.) for 1 hour together with D-BHB or L-(BHB) at indicated concentration. The cell supernatants and cell lysates were collected 1 h after BHB treatment and analyzed for caspase-1 and IL-1β.
The BMDM cell lysates were prepared using RIPA buffer and immediately snap frozen in liquid nitrogen. Samples were left on ice for 1 hour with vortexing every 10 min. Samples were then centrifuge at 14,000 g for 15 min, the supernatant was collected and the protein concentration was determined using the DC Protein Assay (Bio-RAD). […] The immune complexes were visualized by incubation with horseradish peroxidase-conjugated anti-rat or anti-rabbit secondary antibody (Amersham Biosciences). Immunoreactive bands were visualized by enhanced chemiluminescence (PerkinElmer Life Sciences).

[2] = system: Gpr109a; conditions: Taggart et al., 2005; cited from earlier work
[3] = WT and Gpr109a−/− BMDMs stimulated with LPS and ATP

inflammasome activation with HDAC inhibitor ([1]; LPS primed and NLRP3 agonist treated macrophages, TSA (50 nM)): no effects
SMILES: CC(/C=C/C(=O)NO)=C\[C@@H](C)C(=O)c1ccc(N(C)C)cc1 [trichostatin A, reference compound]

effect on BHB's suppressive effects on ATP-induced NLRP3 inflammasome activation ([1]; LPS primed BMDMs, ATP): did not abrogate
SMILES: Cn1cnc(N)c2ncnc1-2 [3-methyladenine, reference compound]

effect on BHB's suppressive effects on ATP-induced NLRP3 inflammasome activation ([1]; LPS primed BMDMs, ATP): did not abrogate
SMILES: N#C/C(=C\c1ccc(-c2cc(Cl)ccc2Cl)o1)C(=O)Nc1cccc2ncccc12 [AGK2, reference compound]

SMILES: NOCC(=O)O [aminoxyacetate, reference compound]
effect on BHB's suppressive effects on ATP-induced NLRP3 inflammasome activation ([1]; LPS primed BMDMs, ATP): did not affect

SMILES: CC(=O)CC(=O)O [acetoacetate, reference compound]
ATP-induced NLRP3 activation ([1]; 10 mM): did not affect
effect on the NLRP3 inflammasome ([1]; control and Gpr109a deficient BMDMs, LPS and ATP, 10 mM): neither butyrate nor acetoacetate affect

NLRP3 inflammasome activation with GPR109a ligand ([1]; BMDMs activated with LPS and ATP, niacin (1 mM)): did not block
SMILES: O=C(O)c1cccnc1 [niacin, reference compound]

effect on BHB's suppressive effects on ATP-induced NLRP3 inflammasome activation ([1]; LPS primed BMDMs, ATP): did not prevent
SMILES: OO [hydrogen peroxide, reference compound]
induction of caspase-1 cleavage by ROS damage ([1]; LPS primed BMDMs): not sufficient to induce

SMILES: C=C(C)[C@H]1Cc2c(ccc3c2O[C@@H]2COc4cc(OC)c(OC)cc4[C@@H]2C3=O)O1 [rotenone, reference compound]
effect on BHB's suppressive effects on ATP-induced NLRP3 inflammasome activation ([1]; LPS primed BMDMs, ATP): did not prevent
induction of caspase-1 cleavage by ROS damage ([1]; LPS primed BMDMs): not sufficient to induce

NLRP3 inflammasome activation (Nlrp3 induced caspase-1 activation) ([1]; BMDMs (FIG. 6E)): efficiently blocked
requirement of Gpr109a to block NLRP3 [1, 3]: does not require
SMILES: C[C@H](O)CC(=O)O [(S)-BHB, (S)-3-hydroxybutyric acid]
binding to Gpr109a [2]: high affinity
anti-inflammasome activity [1, 3]: retains anti-inflammasome activity similar to bioactive D-(BHB)

mimicking of BHB's anti-inflammasome effect by inhibition of glycolysis ([1]; LPS primed BMDMs, ATP, 2-deoxyglucose (1 mM)): did not mimic
SMILES: O=CC[C@@H](O)[C@H](O)[C@H](O)CO [2DG, 2-deoxyglucose, reference compound]

SMILES: CC[C@H](C)[C@H](NC(=O)[C@H]([C@@H](C)CC)N(C)C(C)=O)C(=O)N[C@H](C(=O)N[C@@H](CC(C)C)C(=O)[C@@]1(C)CO1)[C@@H](C)O [epoxomicin, reference compound]
effect on BHB's suppressive effects on ATP-induced NLRP3 inflammasome activation ([1]; LPS primed BMDMs, ATP): did not abrogate

SMILES: CC(=O)O [acetate, reference compound]
ATP-induced NLRP3 activation ([1]; 10 mM): did not affect

caspase-1 activation in response to LPS and ATP ([1]; BMDMs, NAD+ (10 μM)): did not block
SMILES: NC(=O)c1ccc[n+]([C@@H]2O[C@H](COP(=O)([O-])OP(=O)(O)OC[C@H]3O[C@@H](n4cnc5c(N)ncnc54)[C@H](O)[C@@H]3O)[C@@H](O)[C@H]2O)c1 [NAD^+, reference compound]
